# Legend:
# Escherichia coli [1] = test: Antibacterial activity against beta-lactamase-negative Escherichia coli E344 incubated up to 7 days by agar dilution method; format: functional; settings: E344, 168 h
# Klebsiella pneumoniae [2] = test: Ratio of mutant prevention concentration to minimum Inhibitory concentration for beta-lactamase-positive ESBL-positive Klebsiella pneumoniae E475; format: functional
# Klebsiella pneumoniae [3] = test: Ratio of mutant prevention concentration to minimum Inhibitory concentration for beta-lactamase-positive ESBL-negative Klebsiella pneumoniae E473; format: functional
# Klebsiella pneumoniae [4] = test: Ratio of mutant prevention concentration to minimum Inhibitory concentration for beta-lactamase-positive ESBL-negative Klebsiella pneumoniae E472; format: functional
# Escherichia coli [5] = test: Ratio of mutant prevention concentration to minimum Inhibitory concentration for beta-lactamase-negative Escherichia coli E347; format: functional
# Klebsiella pneumoniae [6] = test: Ratio of mutant prevention concentration to minimum Inhibitory concentration for beta-lactamase-positive ESBL-negative Klebsiella pneumoniae E507; format: functional
# Escherichia coli [7] = test: Ratio of mutant prevention concentration to minimum Inhibitory concentration for beta-lactamase-positive ESBL-positive Escherichia coli E465; format: functional
# Klebsiella pneumoniae [8] = test: Ratio of mutant prevention concentration to minimum Inhibitory concentration for beta-lactamase-positive ESBL-negative Klebsiella pneumoniae E480; format: functional
# Pseudomonas aeruginosa [9] = test: Antibacterial activity against Pseudomonas aeruginosa P338 incubated up to 7 days by agar dilution method; format: functional; settings: P338, 168 h
# Pseudomonas aeruginosa [10] = test: Ratio of mutant prevention concentration to minimum Inhibitory concentration for Pseudomonas aeruginosa P369; format: functional
# Pseudomonas aeruginosa [11] = test: Ratio of mutant prevention concentration to minimum Inhibitory concentration for Pseudomonas aeruginosa P322; format: functional
# Acinetobacter baumannii [12] = test: Ratio of mutant prevention concentration to minimum Inhibitory concentration for Acinetobacter baumannii A892; format: functional
# Pseudomonas aeruginosa [13] = test: Antibacterial activity against Pseudomonas aeruginosa P326 incubated up to 7 days by agar dilution method; format: functional; settings: P326, 168 h
# Pseudomonas aeruginosa [14] = test: Ratio of mutant prevention concentration to minimum Inhibitory concentration for Pseudomonas aeruginosa P373; format: functional
# Acinetobacter baumannii [15] = test: Antibacterial activity against Acinetobacter baumannii A901 incubated up to 7 days by agar dilution method; format: functional; settings: A901, 168 h
# Acinetobacter baumannii [16] = test: Antibacterial activity against Acinetobacter baumannii A891 incubated up to 7 days by agar dilution method; format: functional; settings: A891, 168 h
# Acinetobacter baumannii [17] = test: Antibacterial activity against Acinetobacter baumannii A890 incubated up to 7 days by agar dilution method; format: functional; settings: A890, 168 h
# Pseudomonas aeruginosa [18] = test: Ratio of mutant prevention concentration to minimum Inhibitory concentration for Pseudomonas aeruginosa P356; format: functional
# Pseudomonas aeruginosa [19] = test: Antibacterial activity against Pseudomonas aeruginosa P356 incubated up to 7 days by agar dilution method; format: functional; settings: P356, 168 h
# Pseudomonas aeruginosa [20] = test: Ratio of mutant prevention concentration to minimum Inhibitory concentration for Pseudomonas aeruginosa P328; format: functional
# Acinetobacter baumannii [21] = test: Antibacterial activity against Acinetobacter baumannii A911 incubated for 24 h by agar dilution method; settings: A911, 24 h
# Pseudomonas aeruginosa [22] = test: Antibacterial activity against Pseudomonas aeruginosa P340 incubated up to 7 days by agar dilution method; format: functional; settings: P340, 168 h
# Pseudomonas aeruginosa [23] = test: Ratio of mutant prevention concentration to minimum Inhibitory concentration for Pseudomonas aeruginosa P323; format: functional
# Acinetobacter baumannii [24] = test: Antibacterial activity against Acinetobacter baumannii A850 incubated up to 7 days by agar dilution method; format: functional; settings: A850, 168 h
# Acinetobacter baumannii [25] = test: Ratio of mutant prevention concentration to minimum Inhibitory concentration for Acinetobacter baumannii A911; format: functional
# Acinetobacter baumannii [26] = test: Ratio of mutant prevention concentration to minimum Inhibitory concentration for Acinetobacter baumannii A884; format: functional
# Pseudomonas aeruginosa [27] = test: Ratio of mutant prevention concentration to minimum Inhibitory concentration for Pseudomonas aeruginosa P358; format: functional
# Acinetobacter baumannii [28] = test: Antibacterial activity against Acinetobacter baumannii A929 after 24 hrs by agar dilution method; format: functional; settings: A929, 24 h
# Pseudomonas aeruginosa [29] = test: Antibacterial activity against Pseudomonas aeruginosa P376 after 24 hrs by agar dilution method; settings: P376, 24 h
# Pseudomonas aeruginosa [30] = test: Antibacterial activity against Pseudomonas aeruginosa P327 after 24 hrs by agar dilution method; settings: P327, 24 h
# Pseudomonas aeruginosa [31] = test: Antibacterial activity against Pseudomonas aeruginosa P332 after 24 hrs by agar dilution method; settings: P332, 24 h
# Klebsiella pneumoniae [32] = test: Antibacterial activity against beta-lactamase-negative Klebsiella pneumoniae E361 after 24 hrs by agar dilution method; format: functional; settings: E361, 24 h
# Klebsiella pneumoniae [33] = test: Antibacterial activity against beta-lactamase-positive ESBL-positive Klebsiella pneumoniae E453 after 24 hrs by agar dilution method; format: functional; settings: E453, 24 h
# Escherichia coli [34] = test: Antibacterial activity against beta-lactamase-negative Escherichia coli E348 after 24 hrs by agar dilution method; settings: E348, 24 h
# Escherichia coli [35] = test: Antibacterial activity against beta-lactamase-positive ESBL-negative Escherichia coli E437 after 24 hrs by agar dilution method; settings: E437, 24 h
# Acinetobacter baumannii [36] = test: Antibacterial activity against Acinetobacter baumannii A867 after 24 hrs by agar dilution method; format: functional; settings: A867, 24 h
# Escherichia coli [37] = test: Antibacterial activity against beta-lactamase-positive ESBL-negative Escherichia coli E484 after 24 hrs by agar dilution method; format: functional; settings: E484, 24 h
# Escherichia coli [38] = test: Antibacterial activity against beta-lactamase-negative Escherichia coli E345 after 24 hrs by agar dilution method; settings: E345, 24 h
# Escherichia coli [39] = test: Antibacterial activity against beta-lactamase-positive ESBL-negative Escherichia coli E415 after 24 hrs by agar dilution method; settings: E415, 24 h
# Acinetobacter baumannii [40] = test: Antibacterial activity against Acinetobacter baumannii A901 after 24 hrs by agar dilution method; format: functional; settings: A901, 24 h
# Klebsiella pneumoniae [41] = test: Antibacterial activity against beta-lactamase-negative Klebsiella pneumoniae E420 after 24 hrs by agar dilution method; format: functional; settings: E420, 24 h
# Pseudomonas aeruginosa [42] = test: Antibacterial activity against Pseudomonas aeruginosa P370 after 24 hrs by agar dilution method; settings: P370, 24 h
# Acinetobacter baumannii [43] = test: Antibacterial activity against Acinetobacter baumannii A892 after 24 hrs by agar dilution method; format: functional; settings: A892, 24 h
# Escherichia coli [44] = test: Antibacterial activity against beta-lactamase-positive ESBL-positive Escherichia coli E459 after 24 hrs by agar dilution method; settings: E459, 24 h
# Escherichia coli [45] = test: Antibacterial activity against beta-lactamase-negative Escherichia coli E424 after 24 hrs by agar dilution method; settings: E424, 24 h
# Escherichia coli [46] = test: Antibacterial activity against beta-lactamase-positive ESBL-negative Escherichia coli E412 after 24 hrs by agar dilution method; settings: E412, 24 h
# Klebsiella pneumoniae [47] = test: Antibacterial activity against beta-lactamase-negative Klebsiella pneumoniae E362 after 24 hrs by agar dilution method; format: functional; settings: E362, 24 h
# Acinetobacter baumannii [48] = test: Antibacterial activity against Acinetobacter baumannii A850 after 24 hrs by agar dilution method; format: functional; settings: A850, 24 h
# Acinetobacter baumannii [49] = test: Antibacterial activity against Acinetobacter baumannii A897 after 24 hrs by agar dilution method; format: functional; settings: A897, 24 h
# Escherichia coli [50] = test: Antibacterial activity against beta-lactamase-positive ESBL-negative Escherichia coli E483 after 24 hrs by agar dilution method; settings: E483, 24 h
# Pseudomonas aeruginosa [51] = test: Antibacterial activity against Pseudomonas aeruginosa P358 after 24 hrs by agar dilution method; format: functional; settings: P358, 24 h
# Klebsiella pneumoniae [52] = test: Antibacterial activity against beta-lactamase-positive ESBL-negative Klebsiella pneumoniae E479 after 24 hrs by agar dilution method; format: functional; settings: E479, 24 h
smiles,measurement,setting,value
C[C@@H](O)[C@H]1C(=O)N2C(C(=O)O)=C(S[C@@H]3CN[C@H](C(=O)Nc4cccc(C(=O)O)c4)C3)[C@H](C)[C@H]12,MIC,Escherichia coli [1],0.008 µg/mL
same,Ratio,Klebsiella pneumoniae [2],2
same,Ratio,Klebsiella pneumoniae [3],4
same,Ratio,Klebsiella pneumoniae [4],8
same,Ratio,Escherichia coli [5],4
same,Ratio,Klebsiella pneumoniae [6],8
same,Ratio,Escherichia coli [7],>16
same,Ratio,Klebsiella pneumoniae [8],4
C[C@@H](O)[C@H]1C(=O)N2C(C(=O)O)=C(S[C@@H]3CN[C@H](CNS(N)(=O)=O)C3)[C@H](C)[C@H]12 [DORIPENEM],MIC,Escherichia coli [1],0.03 µg/mL
same,Ratio,Klebsiella pneumoniae [2],8
same,MIC,Pseudomonas aeruginosa [9],0.25 µg/mL
same,Ratio,Klebsiella pneumoniae [3],4
same,Ratio,Pseudomonas aeruginosa [10],8
same,Ratio,Klebsiella pneumoniae [4],>16
same,Ratio,Pseudomonas aeruginosa [11],8
same,Ratio,Acinetobacter baumannii [12],16
same,MIC,Pseudomonas aeruginosa [13],4 µg/mL
same,Ratio,Pseudomonas aeruginosa [14],>8
same,Ratio,Escherichia coli [5],2
same,Ratio,Klebsiella pneumoniae [6],>16
same,MIC,Acinetobacter baumannii [15],4 µg/mL
same,MIC,Acinetobacter baumannii [16],0.5 µg/mL
same,MIC,Acinetobacter baumannii [17],0.25 µg/mL
same,Ratio,Pseudomonas aeruginosa [18],>16
same,MIC,Pseudomonas aeruginosa [19],0.25 µg/mL
same,Ratio,Pseudomonas aeruginosa [20],2
same,MIC,Acinetobacter baumannii [21],4 µg/mL
same,Ratio,Escherichia coli [7],16
same,MIC,Pseudomonas aeruginosa [22],0.125 µg/mL
same,Ratio,Pseudomonas aeruginosa [23],8
same,MIC,Acinetobacter baumannii [24],4 µg/mL
same,Ratio,Acinetobacter baumannii [25],2
same,Ratio,Klebsiella pneumoniae [8],4
same,Ratio,Acinetobacter baumannii [26],2
same,Ratio,Pseudomonas aeruginosa [27],8
C[C@@H](O)[C@H]1C(=O)N2C(C(=O)O)=C(SCCNC=N)C[C@H]12 [IMIPENEM ANHYDROUS],MIC,Acinetobacter baumannii [28],0.5 µg/mL
same,MIC,Pseudomonas aeruginosa [29],4 µg/mL
same,MIC,Pseudomonas aeruginosa [30],2 µg/mL
same,MIC,Pseudomonas aeruginosa [31],1 µg/mL
same,MIC,Klebsiella pneumoniae [32],0.5 µg/mL
same,MIC,Klebsiella pneumoniae [33],0.125 µg/mL
same,MIC,Escherichia coli [34],0.125 µg/mL
same,MIC,Escherichia coli [35],0.25 µg/mL
same,MIC,Acinetobacter baumannii [36],4 µg/mL
same,MIC,Escherichia coli [37],4 µg/mL
same,MIC,Escherichia coli [38],0.25 µg/mL
same,MIC,Escherichia coli [39],0.125 µg/mL
same,MIC,Acinetobacter baumannii [40],2 µg/mL
same,MIC,Klebsiella pneumoniae [41],0.25 µg/mL
same,MIC,Pseudomonas aeruginosa [42],1 µg/mL
same,MIC,Acinetobacter baumannii [43],4 µg/mL
same,MIC,Escherichia coli [44],0.25 µg/mL
same,MIC,Escherichia coli [45],0.125 µg/mL
same,MIC,Escherichia coli [46],0.25 µg/mL
same,MIC,Klebsiella pneumoniae [47],0.5 µg/mL
same,MIC,Acinetobacter baumannii [48],4 µg/mL
same,MIC,Acinetobacter baumannii [49],0.5 µg/mL
same,MIC,Escherichia coli [50],1 µg/mL
same,MIC,Pseudomonas aeruginosa [51],32 µg/mL
same,MIC,Klebsiella pneumoniae [52],8 µg/mL
C[C@@H](O)[C@H]1C(=O)N2C(C(=O)O)=C(S[C@@H]3CN[C@H](C(=O)N(C)C)C3)[C@H](C)[C@H]12 [MEROPENEM],MIC,Pseudomonas aeruginosa [9],0.25 µg/mL
same,MIC,Pseudomonas aeruginosa [13],8 µg/mL
same,MIC,Acinetobacter baumannii [15],2 µg/mL
same,MIC,Acinetobacter baumannii [16],1 µg/mL
same,MIC,Acinetobacter baumannii [17],0.5 µg/mL
same,MIC,Pseudomonas aeruginosa [19],0.5 µg/mL
same,MIC,Acinetobacter baumannii [21],4 µg/mL
same,MIC,Pseudomonas aeruginosa [22],0.25 µg/mL
same,MIC,Acinetobacter baumannii [24],4 µg/mL
